How the values were obtained:
[1] = test system: ciliated neurons in CA1 of the hippocampus of Tsc2 mutant mice; assay: Ciliated neurons in brain of Tsc2 mutant mice (immunohistochemistry, manual cilia counting); format: in vivo, mouse; settings: rapamycin 3 mg/kg i.p. every other day P7 until P56
Excerpt: (§1) Neuronal cilia in TSC mouse models was examined with either a conditional deletion of TSC1 or TSC2 driven by the Synapsin-1 promoter, which results in loss of TSC1/2 proteins in post-mitotic neurons of the cortex and of the hippocampus. The TSC1/SynCre mice (Tsc1 mutant) have a shorter life span (median age postnatal day 35, P35), and they recapitulate many of the neurological manifestations of TSC, including seizures and presence of ectopic giant cells (Meikle et al., A mouse model of tuberous sclerosis: neuronal loss of Tsc1 causes dysplastic and ectopic neurons, reduced myelination, seizure activity, and limited survival; J Neurosci 27, 5546-5558 (2007)). […]
For histological analysis, animals were anesthetized (1 ml of 2.5% Avertin) and perfused transcardially with 4% PFA. […] Finally, the average percentage of neurons with cilia (NeuN^+/ACIII^+) was calculated in each of the images. […] The average percentage of SMI311^+ or SMI311^− with cilia was calculated. […] A threshold for cilia count was set such that only ACIII positive objects that measured longer than 1 μm were counted as cilia. All the imaging and the quantification were done in a blinded way. […] All quantifications were performed in a blinded fashion.

[2] = test system: ciliated neurons in cortex and dentate gyrus of Tsc1 mutant mice; assay: Ciliated neurons in brain of Tsc1 mutant mice (immunohistochemistry, manual cilia counting); format: in vivo, mouse; settings: rapamycin 6 mg/kg i.p. every other day P7 until P21
Excerpt: as §1
For histological analysis, animals were anesthetized (1 ml of 2.5% Avertin) and perfused transcardially with 4% PFA. […] Finally, the average percentage of neurons with cilia (NeuN^+/ACIII^+) was calculated in each of the images. […] The average percentage of SMI311^+ or SMI311^− with cilia was calculated. […] A threshold for cilia count was set such that only ACIII positive objects that measured longer than 1 μm were counted as cilia. All the imaging and the quantification were done in a blinded way. […]

## CO[C@H]1C[C@@H]2CC[C@@H](C)[C@@](O)(O2)C(=O)C(=O)N2CCCC[C@H]2C(=O)O[C@H]([C@H](C)C[C@@H]2CC[C@@H](O)[C@H](OC)C2)CC(=O)[C@H](C)/C=C(\C)[C@@H](O)[C@@H](OC)C(=O)[C@H](C)C[C@H](C)/C=C/C=C/C=C/1C [rapamycin]
[1]
  ciliation defects: prevented
[2]
  ciliation defects: prevented

— patent US20230218577A1, “USE OF HEAT SHOCK PROTEIN INHIBITORS FOR THE TREATMENT OF NEURODEVELOPMENTAL DISORDERS” (The Children's Medical Center Corporation, priority 2020, published 2023)
